Measured values taken from patent US9000016B2, “1,3,4-Oxadiazoles-2-thio derivatives as sphingosine-1 phosphate receptors modulators” (Allergan, Inc., priority 2012, dated 2015).

Target: T1, human S1P1 receptor (Homo sapiens, UniProt P21453)
T1 construct: expressed in transfected cells; membranes used
Assay: GTP γ35S binding assay for S1P1 activity
Assay type: biochemical
Conditions: membranes of cells stably expressing the S1P1 receptor, agonist potency
Procedure: Compounds were synthesized and tested for S1P1 activity using the GTP γ^35S binding assay. These compounds may be assessed for their ability to activate or block activation of the human S1P1 receptor in cells stably expressing the S1P1 receptor.
GTP y^35S binding was measured in the medium containing (mM) HEPES 25, pH 7.4, MgCl210, NaCI 100, dithiothreitol 0.5, digitonin 0.003%, 0.2 nM GTP y^35S, and 5 µg membrane protein in a volume of 150 μl. Test compounds were included in the concentration range from 0.08 to 5,000 nM unless indicated otherwise. Membranes were incubated with 100 μM 5′-adenylylimidodiphosphate for 30 min, and subsequently with 10 μM GDP for 10 min on ice. Drug solutions and membrane were mixed, and then reactions were initiated by adding GTP y^35S and continued for 30 min at 25° C. Reaction mixtures were filtered over Whatman GF/B filters under vacuum, and washed three times with 3 mL of ice-cold buffer (HEPES 25, pH7.4, MgCl210 and NaCI 100). Filters were dried and mixed with scintillant, and counted for ^35S activity using a β-counter. Agonist-induced GTP y^35S binding was obtained by subtracting that in the absence of agonist. Binding data were analyzed using a non-linear regression method. In case of antagonist assay, the reaction mixture contained 10 nM S1 P1 in the presence of test antagonist at concentrations ranging from 0.08 to 5000 nM.

T1 sequence (P21453 whole entry): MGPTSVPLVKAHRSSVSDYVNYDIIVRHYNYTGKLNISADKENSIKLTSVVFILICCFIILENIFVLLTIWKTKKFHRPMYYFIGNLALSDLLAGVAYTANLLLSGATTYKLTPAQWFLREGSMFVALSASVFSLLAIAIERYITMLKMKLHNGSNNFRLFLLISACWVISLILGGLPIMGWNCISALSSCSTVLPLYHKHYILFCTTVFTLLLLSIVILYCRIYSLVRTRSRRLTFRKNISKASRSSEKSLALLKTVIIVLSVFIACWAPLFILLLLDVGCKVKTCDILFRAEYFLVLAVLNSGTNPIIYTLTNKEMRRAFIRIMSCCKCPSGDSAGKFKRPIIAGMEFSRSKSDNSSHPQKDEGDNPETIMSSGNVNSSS

Structure (SMILES): Cc1ccc(-c2nnc(SC(C)c3ccc(CNCCCP(=O)(O)O)cc3)o2)cc1C (centres unmarked) [Compound 1, (3-{[4-(1-{[5-(3,4-Dimethylphenyl)-1,3,4-oxadiazol-2-yl]thio}ethyl)benzyl]amino}propyl)phosphonic acid]
- EC50: 82 nM

Structure (SMILES): Cc1ccc(-c2nnc(SC(C)c3ccc(CNCCC(=O)O)cc3)o2)cc1C (centres unmarked) [Compound 3, 3-{[4-(1-{[5-(3,4-Dimethylphenyl)-1,3,4-oxadiazol-2-yl]thio}ethyl)benzyl]amino}propanoic acid]
- EC50: 8.4 nM
